This note sets out measurements from patent US20170056345A1 (priority 2014, published 2017).

One assay relates to M. tuberculosis. The experiment in a line: time-kill curve method, bactericidal activity (CFU) on solid media at pH6. Type of assay: cell-based. To be noted: FIG. 2. On the procedure:
The synergistic effect of AHA in overcoming urea protection of M. tuberculosis and in enhancing the efficacy of PZA is illustrated.
We employed a time-kill curve method to determine the bactericidal activity of PZA and a combination of PZA and acetohydroxamic acid (AHA) against M. tuberculosis. We cultured M. tuberculosis on solid media at pH6. CFU values were determined for samples treated with pyrazinamide (PZA), urea at a typical body fluid concentration and acetohydroxamic acid. […] Consequently, our results provide that AHA acts not only as a PZA booster, but also as an anti-mycobacterial agent, in some instances, in a synergistic manner with the traditional anti-mycobacterial agent used.

In a further assay the target is mycobacterial urease (Mycobacterium bovis, UniProt A1KJR2). The experiment in a line: cell-based. On the set-up: species or system M. bovis BCG.
mycobacterial urease, sequence (A1KJR2 whole entry, looked up): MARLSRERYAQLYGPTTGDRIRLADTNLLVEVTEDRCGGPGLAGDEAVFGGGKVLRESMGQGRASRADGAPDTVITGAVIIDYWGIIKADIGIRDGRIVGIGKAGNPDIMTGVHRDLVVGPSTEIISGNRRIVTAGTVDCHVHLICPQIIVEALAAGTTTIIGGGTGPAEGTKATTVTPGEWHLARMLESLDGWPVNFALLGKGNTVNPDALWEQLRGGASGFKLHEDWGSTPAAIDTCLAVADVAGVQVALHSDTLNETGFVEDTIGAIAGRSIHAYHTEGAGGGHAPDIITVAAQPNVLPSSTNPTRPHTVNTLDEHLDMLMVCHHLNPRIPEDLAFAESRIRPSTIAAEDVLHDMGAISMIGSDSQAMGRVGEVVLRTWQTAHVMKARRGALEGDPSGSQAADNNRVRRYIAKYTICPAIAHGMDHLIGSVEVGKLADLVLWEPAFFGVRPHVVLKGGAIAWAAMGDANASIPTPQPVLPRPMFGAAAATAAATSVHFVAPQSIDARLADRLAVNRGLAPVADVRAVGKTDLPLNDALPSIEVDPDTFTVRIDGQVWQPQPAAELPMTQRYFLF

`NC(=O)c1cnccn1` [PZA, pyrazinamide]: in the assay on M. tuberculosis (PZA alone, M. tuberculosis on solid media at pH6), the “kill (bactericidal activity, CFU)” value is “modest”.

Regarding `CC(=O)NO` [acetohydroxamic acid], the “effect on kill rate” value in the assay on M. tuberculosis (AHA combined with PZA (urea present), solid media pH6) was “substantially increased the kill rate”. Besides, in the assay with M. tuberculosis (AHA with PZA and urea at a typical body fluid concentration, solid media pH6), the “effect on urea protection against the PZA kill” value is “prevented urea protection”. The compound also showed an IC50 on mycobacterial urease of 100 to 200 µM.
